Results reported in PMC4286326 (Journal of the American Chemical Society, 2014).
Several values for one entry are separate records, joined by “and”; a condition that tells them apart may be missing. Equal entries are not always repeated.

What was measured:
S31N mutant of M2 (A/M2) = S31N mutant of M2 (A/M2) (Influenza A virus, UniProt P0DOF5, S31N); assay type: biochemical; details: 100 µM
[1] = tested on: M2-S31N-expressing A/WSN/33; assay type: cell-based, influenza A virus; details: read-out: A/WSN/33 (S31N) EC50

Compound | % S31N inhibition (S31N mutant of M2 (A/M2)) | EC50 [1] [µM]
NC12CC3CC(CC(C3)C1)C2 [Compound 1, amantadine, reference compound] | 36% | 22.5
Brc1ccc(CNC23CC4CC(CC(C4)C2)C3)s1 [Compound 11, N-[(5-bromothiophen-2-yl)methyl]adamantan-1-amine] | 76% and 76/N.T. % | 1.8
